Reference: patent US7750155B2, “Pyrazinyl hydroxyacrylamide compounds having an inhibitory effect on the activity of histone deacetylase” (Astellas Pharma Inc., priority 2006, dated 2010)
pIC50: −log10 of the molar value. Structures can show the parent of a compound that is named as a salt.

Key:
[1] = system: T1, human histone deacetylase partially purified from human T cell leukemia Jurkat cells; experiment: Test 1: Determination of histone deacetylase inhibitor activity ([3H]acetyl histone deacetylation); assay type: biochemical; settings: partially purified human HDAC from Jurkat cells, [3H]acetyl histone substrate, 25° C., 30 minutes; read-out: Test 1: HDAC inhibitory activity IC50
T1 construct: The human histone deacetylase was partially purified from human T cell leukemia Jurkat cells
Procedure: Test 1: Determination of Histone Deacetylase Inhibitor Activity
The partial purification of human histone deacetylase, the preparation of [^3H] acetyl histones, and the assay for histone deacetylase activity were performed basically according to the method as proposed by Yoshida et al. as follows.
Partial Purification of Human Histone Deacetylase
The human histone deacetylase was partially purified from human T cell leukemia Jurkat cells. Jurkat cells (5×10^8 cells) were suspended in 40 mL of the HDA buffer consisting of 15 mM potassium phosphate, pH 7.5, 5% glycerol and 0.2 mM EDTA. After homogenization, nuclei were collected by centrifugation (35,000×g, 10 min) and homogenized in 20 mL of the same buffer supplemented with 1 M (NH4)2SO4. The viscous homogenate was sonicated and clarified by centrifugation (35,000×g, 10 min), and the deacetylase was precipitated by raising the concentration of (NH4)2SO4 to 3.5 M. The precipitated protein was dissolved in 10 mL of the HDA buffer and dialyzed against 4 liters of the same buffer. The dialyzate was then loaded onto a DEAE-cellulose (Whatman DE52) column (25×85 mm) equilibrated with the same buffer and eluted with 300 mL of a linear gradient (0-0.6 M) of NaCl. A single peak of histone deacetylase activity appeared between 0.3 and 0.4 M NaCl.
Preparation of [^3H] Acetyl Histone
To obtain [^3H] acetyl-labeled histone as the substrate for the histone deacetylase assay, 1×10^8 cells of Jurkat in 20 mL of RPMI-1640 medium (supplemented with 10% FBS, penicillin (50 units/mL) and streptomycin (50 μg/mL)) were incubated with 300 MBq [^3H] sodium acetate in the presence of 5 mM sodium butyrate for 30 minutes in 5% CO2-95% air atmosphere at 37° C. in a […] flask, harvested into a centrifuge tube (50 mL), collected by centrifugation at 1000 rpm for 10 minutes, and washed once with phosphate-buffered saline. The washed cells were suspended in 15 mL of ice-cold lysis buffer (10 mM Tris-HCl, 50 mM sodium bisulfite, 1% Triton X-100, 10 mM MgCl2, 8.6% sucrose, pH 6.5). After Dounce homogenization (30 stroke), the nuclei were collected by centrifugation at 1000 rpm for 10 minutes, washed 3 times with 15 mL of the lysis buffer, and once with 15 mL of ice-cooled washing buffer (10 mM Tris-HCl, 13 mM EDTA, pH 7.4) successively. The pellet was suspended in 6 mL of ice-cooled water using a mixer, and 68 μl of H2SO4 was added to the suspension to give a concentration of 0.4 N. After incubation at 4° C. for 1 hour, the suspension was centrifuged for 5 minutes at 15,000 rpm, and the supernatant was taken and mixed with 60 mL of acetone. After overnight incubation at −20° C., the coagulated material was collected by microcentrifugation, air-dried, and stored at −80° C.
Assay for Histone Deacetylase Activity
For the standard assay, 10 μl of [^3H] acetyl-labeled histones were added to 90 μl of the enzyme fraction, and the mixture was incubated at 25° C. for 30 minutes. The reaction was stopped by addition of 10 μl of HCl. The released [^3H] acetic acid was extracted with 1 mL of ethyl acetate, and 0.9 mL of the solvent layer was taken into 10 mL of toluene scintillation solution for determination of radioactivity.

[2] = system: splenic cells of Lewis rats (T lymphocyte blastogenesis); experiment: Test 2: T-cell growth inhibitor activity (T lymphocyte blastogenesis, Concanavalin A, AlamarBlue); assay type: cell-based; settings: Lewis rat splenic cells, Concanavalin A 1 μg/mL, 72 hours, read-out: Test 2: T-cell growth inhibitory activity IC50
Procedure: Test 2: Determination of T-Cell Growth Inhibitor Activity
The T lymphocyte blastogenesis test was performed in microtiter plates with each well containing 1.5×10^5 splenic cells of Lewis rats in 0.1 mL RPMI-1640 medium supplemented with 10% fetal bovine serum (FBS), […] 2-mercaptoethanol, penicilln (100 units/mL) and streptomycin (100 μg/mL), to which Concanavalin A (1 μg/mL) was added. The cells were incubated at 37° C. in a humidified atmosphere of 5% CO2 for 72 hours. After the culture period, suppressive activities of the test compounds in T lymphocyte blastogenesis were quantified by AlamarBlue (trademark) Assay. The test samples were dissolved in DMSO and further diluted with RPMI-1640 medium and added to the culture. The activities of the test compounds were expressed as IC50.

Structure (SMILES) | pIC50 [1] | pIC50 [2]
O=C(/C=C/c1cnc(N[C@@H]2CCN(CCc3ccc(F)cc3F)C2)cn1)NO [Example 2, (2E)-3-[5-({(3R)-1-[2-(2,4-difluorophenyl)ethyl]-3-pyrrolidinyl}amino)-2-pyrazinyl]-N-hydroxyacrylamide dihydrochloride] | 8.82 | 8.64
O=C(/C=C/c1cnc(N[C@@H]2CCN(CCc3c(F)cccc3F)C2)cn1)NO [Example 3, (2E)-3-[5-({(3R)-1-[2-(2,6-difluorophenyl)ethyl]-3-pyrrolidinyl}amino)-2-pyrazinyl]-N-hydroxyacrylamide dihydrochloride] | 8.57 | 8.92
O=C(/C=C/c1cnc(N[C@@H]2CCN(CCc3cccs3)C2)cn1)NO [Example 4, (2E)-N-hydroxy-3-[5-({(3R)-1-[2-(2-thienyl)ethyl]-3-pyrrolidinyl}amino)-2-pyrazinyl]acrylamide dihydrochloride] | 8.44 | 8.92
O=C(/C=C/c1cnc(N[C@@H]2CCCN(CCc3ccccc3F)C2)cn1)NO [Example 7, (2E)-3-[5-({(3R)-1-[2-(2-fluorophenyl)ethyl]-3-piperidinyl}amino)-2-pyrazinyl]-N-hydroxyacrylamide dihydrochloride] | 8.82 | 9.10
O=C(/C=C/c1cnc(N[C@@H]2CCCN(CCc3ccc(F)cc3F)C2)cn1)NO [Example 8, (2E)-3-[5-({(3R)-1-[2-(2,4-difluorophenyl)ethyl]-3-piperidinyl}amino)-2-pyrazinyl]-N-hydroxyacrylamide dihydrochloride] | 8.77 | 8.96
CN(C)c1ccccc1CN1CC[C@@H](Nc2cnc(/C=C/C(=O)NO)cn2)C1 [Example 10, (2E)-3-[5-({(3R)-1-[2-(dimethylamino)benzyl]-3-pyrrolidinyl}amino)-2-pyrazinyl]-N-hydroxyacrylamide trihydrochloride] | 8.52 | 8.49
O=C(/C=C/c1cnc(N[C@@H]2CCN(CC3(CO)CCCCC3)C2)cn1)NO [Example 13, (2E)-N-hydroxy-3-(5-{[(3R)-1-{[1-(hydroxymethyl)cyclohexyl]methyl}-3-pyrrolidinyl]amino}-2-pyrazinyl)acrylamide dihydrochloride] | 8.72 | 8.33
O=C(/C=C/c1cnc(N[C@@H]2CCN(CC34CCC(CC3)O4)C2)cn1)NO [Example 14, (2E)-N-hydroxy-3-(5-{[(3R)-1-(7-oxabicyclo[2.2.1]hept-1-ylmethyl)-3-pyrrolidinyl]amino}-2-pyrazinyl)acrylamide dihydrochloride] | 8.42 | 8.92
COc1ccc(F)cc1CN1CC[C@@H](Nc2cnc(/C=C/C(=O)NO)cn2)C1 [Example 15, (2E)-3-(5-{[(3R)-1-(5-fluoro-2-methoxybenzyl)-3-pyrrolidinyl]amino}-2-pyrazinyl)-N-hydroxyacrylamide dihydrochloride] | 8.36 | 8.19
O=C(/C=C/c1cnc(N[C@@H]2CCN(Cc3cccc4ccccc34)C2)cn1)NO [Example 16, (2E)-N-hydroxy-3-[5-[{(3R)-1-(1-naphthylmethyl)-3-pyrrolidinyl}amino]-2-pyrazinyl]acrylamide dihydrochloride] | 8.18 | 8.39
O=C(/C=C/c1cnc(N[C@@H]2CCCN(CCCc3ccccc3)C2)cn1)NO [Example 17, (2E)-N-hydroxy-3-[5-[{(3R)-1-(3-phenylpropyl)-3-piperidinyl}amino]-2-pyrazinyl]acrylamide dihydrochloride] | 8.48 | 8.30
CC(C)(CN1CC[C@@H](Nc2cnc(/C=C/C(=O)NO)cn2)C1)c1ccccc1 [Example 28, (2E)-N-hydroxy-3-[5-[{(3R)-1-(2-methyl-2-phenylpropyl)-3-pyrrolidinyl}amino]-2-pyrazinyl]acrylamide dihydrochloride] | 8.38 | 7.96
O=C(/C=C/c1cnc(N[C@@H]2CCN(CCCC3CCCCC3)C2)cn1)NO [Example 29, (2E)-3-[5-({(3R)-1-(3-cyclohexylpropyl)-3-pyrrolidinyl}amino)-2-pyrazinyl]-N-hydroxyacrylamide dihydrochloride] | 8.19 | 8.48

Stronger by pIC50 [1], values ahead:

pIC50 [1] | Structure (SMILES) | pIC50 [2]
9.00 | O=C(/C=C/c1cnc(N[C@@H]2CCCN(CCc3ccc(F)c(F)c3)C2)cn1)NO [Example 9, (2E)-3-[5-({(3R)-1-[2-(3,4-difluorophenyl)ethyl]-3-piperidinyl}amino)-2-pyrazinyl]-N-hydroxyacrylamide dihydrochloride] | 8.74
9.02 | COc1cc(CN2CC[C@@H](Nc3cnc(/C=C/C(=O)NO)cn3)C2)ccc1F [Example 11, (2E)-3-(5-{[(3R)-1-(4-fluoro-3-methoxybenzyl)-3-pyrrolidinyl]amino}-2-pyrazinyl)-N-hydroxyacrylamide dihydrochloride] | 8.35
9.23 | O=C(/C=C/c1cnc(N[C@@H]2CCN(CC3CCCC3)C2)cn1)NO [Example 12, (2E)-3-(5-{[(3R)-1-(cyclopentylmethyl)-3-pyrrolidinyl]amino}-2-pyrazinyl)-N-hydroxyacrylamide dihydrochloride] | 8.70
9.10 | O=C(/C=C/c1cnc(N[C@@H]2CCN(CCC3CCCC3)C2)cn1)NO [Example 20, (2E)-3-(5-{[(3R)-1-(2-cyclopentylethyl)-3-pyrrolidinyl]amino}-2-pyrazinyl)-N-hydroxyacrylamide dihydrochloride] | 8.68
9.01 | O=C(/C=C/c1cnc(N[C@@H]2CCN(CCC3CCCCC3)C2)cn1)NO [Example 21, (2E)-3-(5-{[(3R)-1-(2-cyclohexylethyl)-3-pyrrolidinyl]amino}-2-pyrazinyl)-N-hydroxyacrylamide dihydrochloride] | 8.62
9.06 | O=C(/C=C/c1cnc(N[C@@H]2CCN(CCc3ccccc3Cl)C2)cn1)NO [Example 22, (2E)-3-[5-({(3R)-1-[2-(2-chlorophenyl)ethyl]-3-pyrrolidinyl}amino)-2-pyrazinyl]-N-hydroxyacrylamide dihydrochloride] | 8.89
9.09 | O=C(/C=C/c1cnc(N[C@@H]2CCCN(CCC3CCCC3)C2)cn1)NO [Example 24, (2E)-3-(5-{[(3R)-1-(2-cyclopentylethyl)-3-piperidinyl]amino}-2-pyrazinyl)-N-hydroxyacrylamide dihydrochloride] | 8.62
8.85 | O=C(/C=C/c1cnc(N[C@@H]2CCCN(CCc3ccccc3Cl)C2)cn1)NO [Example 26, (2E)-3-[5-({(3R)-1-[2-(2-chlorophenyl)ethyl]-3-piperidinyl}amino)-2-pyrazinyl]-N-hydroxyacrylamide dihydrochloride] | 9.36
9.04 | O=C(/C=C/c1cnc(N[C@@H]2CCCN(CCc3ccc(Cl)cc3)C2)cn1)NO [Example 27, (2E)-3-[5-({(3R)-1-[2-(4-chlorophenyl)ethyl]-3-piperidinyl}amino)-2-pyrazinyl]-N-hydroxyacrylamide dihydrochloride] | 9.42
